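Interpolation was linear, between the two tested concentrations surrounding the appropriate level; five concentrations were tested over 48 hours in 96-well plates. GI50: concentration for 50% inhibition of growth.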 Active and inactive are the calls of the source. No stated cut-off is given here; in the data, active = GI50 up to about 1.1 µM and inactive = higher. Where a SMILES comes first, the peptide text is derived from it. [ ]: non-standard residue; d: D form. The star is where a group is joined. ξ: configuration not given here. ξD = NC(CC(=O)O)C(=O)O; Boc = CC(C)(C)OC(=O)*; Aib = CC(C)(N)C(=O)O; OtBu = CC(C)(C)O*
Legend:
Test in all cases: inhibition of tumour cell growth, NCI panel, 48 h
[1] = tested on: Hs-578T
[2] = tested on: XF498
[3] = tested on: DMS-114
[4] = tested on: KM-20L2
[5] = tested on: DLD-1
[6] = tested on: DMS-273
[7] = tested on: LXFL 529
[8] = tested on: RXF 631
[9] = tested on: HOP-18

**Q.** Which GI50 [1] does the source give for O=C(CP(c1ccccc1)c1ccccc1)c1cccc(C(=O)CP(c2ccccc2)c2ccccc2)c1 here?
**A.** 62.7 µM (inactive)

**Q.** With Cc1cc2nc3c(C(OC4OC(CO)C(O)C(O)C4O)C(O)CO)nn(-c4ccccc4)c3nc2cc1C (stereo not given) as the compound, how does the GI50 [2] read?
**A.** > 100 µM (inactive)

**Q.** And the GI50 [3]?
**A.** > 100 µM (inactive)

**Q.** And the GI50 [4]?
**A.** > 100 µM (inactive)

**Q.** What about the GI50 [5] of the same compound?
**A.** > 100 µM (inactive)

**Q.** How did the GI50 [1] turn out when c1nc(NCCc2c[nH]cn2)c2nc[nH]c2n1 was run?
**A.** > 100 µM (inactive)

**Q.** With CCC(C)(C)NS(=O)(=O)c1ccccc1 as the compound, how does the GI50 [2] read?
**A.** > 100 µM (inactive)

**Q.** And the GI50 [6]?
**A.** > 100 µM (inactive)

**Q.** And the GI50 [7]?
**A.** > 100 µM (inactive)

**Q.** And the GI50 [3]?
**A.** > 100 µM (inactive)

**Q.** What about the GI50 [4] of the same compound?
**A.** > 100 µM (inactive)

**Q.** And the GI50 [5]?
**A.** > 100 µM (inactive)

**Q.** N#C/N=C(\NCCc1c[nH]c2ccccc12)NCc1ccccc1 was tested. Which GI50 [2] did it give?
**A.** 29.6 µM (inactive)

**Q.** What about the GI50 [6] of the same compound?
**A.** 69.2 µM (inactive)

**Q.** What about the GI50 [7] of the same compound?
**A.** 48.2 µM (inactive)

**Q.** And the GI50 [3]?
**A.** 32.9 µM (inactive)

**Q.** And the GI50 [4]?
**A.** 16.3 µM (inactive)

**Q.** And the GI50 [5]?
**A.** 94.8 µM (inactive)

**Q.** With CC(=O)[C@@H](C)C(=O)N1C(=O)OC[C@@]12[C@@H]1CC[C@@H](C1)C2(C)C as the compound, how does the GI50 [1] read?
**A.** > 100 µM (inactive)

**Q.** How did the GI50 [1] turn out when CS(=O)(=O)c1ccc(NNc2cc(=O)[nH]c(=O)[nH]2)cc1 was run?
**A.** > 100 µM (inactive)

**Q.** For COc1ccc(C2c3cc4c(cc3OC(NNc3ccccc3)C2C)OCO4)cc1 (stereo not given), which GI50 [1] is on record?
**A.** 16.1 µM (inactive)

**Q.** With COc1ccc(NC(=O)C(=O)C2NC(=S)NC2=O)c(OC)c1 (stereo not given) as the compound, how does the GI50 [6] read?
**A.** > 100 µM (inactive)

**Q.** And the GI50 [8]?
**A.** > 100 µM (inactive)

**Q.** And the GI50 [7]?
**A.** > 100 µM (inactive)

**Q.** What about the GI50 [3] of the same compound?
**A.** > 100 µM (inactive)

**Q.** What about the GI50 [4] of the same compound?
**A.** > 100 µM (inactive)

**Q.** And the GI50 [5]?
**A.** > 100 µM (inactive)

**Q.** S=c1sc2c(s1)SCc1cccc(n1)CSc1sc(=S)sc1SCc1cccc(n1)CS2 was tested. Which GI50 [1] did it give?
**A.** > 100 µM (inactive)

**Q.** Which GI50 [1] does the source give for c1cc(-c2sc(-c3ccncc3)c(-c3ccncc3)c2-c2ccncc2)ccn1 here?
**A.** 22.3 µM (inactive)

**Q.** CCOC(=O)c1c(-c2ccccc2)nc2ccccc2c1O was tested. Which GI50 [1] did it give?
**A.** > 100 µM (inactive)

**Q.** Which GI50 [1] does the source give for CCCCNC(=O)OCCN=c1c2ccccc2ccc2ccccc12 here?
**A.** > 100 µM (inactive)

**Q.** How did the GI50 [1] turn out when O=[N+]([O-])c1cccc(/N=N/c2c(O)ccc3ccccc23)c1 was run?
**A.** 49.5 µM (inactive)

**Q.** For CC(C)CCC[C@@H](C)C1CCC2[C@@H]3CC=C4C[C@@H](C(=O)NCCN(C)C)CC[C@]4(C)C3CC[C@@]21C (stereo not given in full), which GI50 [2] is on record?
**A.** 8.11 µM (inactive)

**Q.** And the GI50 [6]?
**A.** 24.4 µM (inactive)

**Q.** And the GI50 [7]?
**A.** 13.9 µM (inactive)

**Q.** What about the GI50 [9] of the same compound?
**A.** 22.4 µM (inactive)

**Q.** What about the GI50 [3] of the same compound?
**A.** 14.8 µM (inactive)

**Q.** And the GI50 [4]?
**A.** 83 µM (inactive)

**Q.** And the GI50 [5]?
**A.** 36.1 µM (inactive)

**Q.** With C=CC(C)(C)n1cc(C2=C3OC(=O)C(c4cn(C(C)(C)C=C)c5ccccc45)=C3OC2=O)c2ccccc21 as the compound, how does the GI50 [1] read?
**A.** > 10 µM (inactive)

**Q.** With COC(=O)c1nn2ccc3ccccc3c2c1C(=O)OC as the compound, how does the GI50 [1] read?
**A.** > 100 µM (inactive)

**Q.** How did the GI50 [1] turn out when COc1ccc(-c2c(C#N)c(N)n(C3OC(CO)C(O)C(O)C3O)c(=S)c2C#N)cc1 (stereo not given) was run?
**A.** 21.7 µM (inactive)

**Q.** How did the GI50 [1] turn out when Oc1ccc[nH]c1=[Se] was run?
**A.** > 100 µM (inactive)

**Q.** Which GI50 [1] does the source give for CC1=C(CO)C(=O)O[C@@H]([C@@H](CO)[C@H]2CCC3C4C[C@@H](O)[C@@]5(O)CC=CC(=O)[C@]5(C)C4CC[C@@]32C)C1 (stereo not given in full) here?
**A.** 59.2 µM (inactive)

**Q.** How did the GI50 [1] turn out when CCCCc1ccc(Nc2nc(S)c3[nH]cnc3n2)cc1 was run?
**A.** 21.5 µM (inactive)

**Q.** CCOC(=O)c1cc(C2(OC)CCN(Cc3ccccc3)C2=O)c(-c2cc(C)no2)[nH]1 (stereo not given) was tested. Which GI50 [1] did it give?
**A.** > 100 µM (inactive)

**Q.** What does the source list for CSC1(C)CC2C(CC1N1CCOCC1)C2(C)C (stereo not given)?
**A.** GI50 [2]: > 100 µM (inactive); GI50 [6]: > 100 µM (inactive); GI50 [7]: > 100 µM (inactive); GI50 [9]: > 100 µM (inactive); GI50 [3]: > 100 µM (inactive); GI50 [5]: > 100 µM (inactive)

**Q.** Which GI50 [1] does the source give for CCCCCCCC(CC(=O)NC(CO)C(=O)NC(CO)CC(C)C)OC(=O)CC(CCCCCCC)OC(=O)CC(CCCCCCC)OC1OC(C)C(O)C(OC2OC(C)C(O)C(O)C2O)C1O (stereo not given) here?
**A.** 8.45 µM (inactive)

**Q.** And the GI50 [6]?
**A.** 10.9 µM (inactive)

**Q.** And the GI50 [7]?
**A.** 4.84 µM (inactive)

**Q.** What about the GI50 [9] of the same compound?
**A.** 17.6 µM (inactive)

**Q.** And the GI50 [3]?
**A.** 3.83 µM (inactive)

**Q.** What about the GI50 [4] of the same compound?
**A.** 15.7 µM (inactive)

**Q.** What about the GI50 [5] of the same compound?
**A.** 16 µM (inactive)

**Q.** CO[C@@H]1C[C@H]2[C@@H]3CC[C@H]([C@@H](C)CO)[C@@]3(C)CC[C@@H]2[C@@]2(C)CC[C@H]3C[C@]312 was tested. Which GI50 [1] did it give?
**A.** 27.2 µM (inactive)

**Q.** With CCOc1ccc(/C=C(\Cl)c2ccc(OC)cc2)cc1 as the compound, how does the GI50 [2] read?
**A.** > 100 µM (inactive)

**Q.** And the GI50 [6]?
**A.** > 100 µM (inactive)

**Q.** What about the GI50 [7] of the same compound?
**A.** > 100 µM (inactive)

**Q.** And the GI50 [9]?
**A.** > 100 µM (inactive)

**Q.** And the GI50 [3]?
**A.** 78.7 µM (inactive)

**Q.** What about the GI50 [4] of the same compound?
**A.** > 100 µM (inactive)

**Q.** What about the GI50 [5] of the same compound?
**A.** > 100 µM (inactive)

**Q.** How did the GI50 [1] turn out when COC(=O)C(C)(C)NC(=O)C(C)(C)NC(=O)C(CC(=O)OC(C)(C)C)NC(=O)OC(C)(C)C (stereo not given) (Boc-[ξD](OtBu)-[Aib]-[Aib]-OMe) was run?
**A.** > 100 µM (inactive)

**Q.** Which results are given for Cn1cnc([N+](=O)[O-])c1Sc1nccn1-c1ccccc1?
**A.** GI50 [2]: 31.1 µM (inactive); GI50 [6]: 63.5 µM (inactive); GI50 [9]: 8.85 µM (inactive); GI50 [3]: 29.4 µM (inactive); GI50 [4]: > 100 µM (inactive); GI50 [5]: 33.3 µM (inactive)

**Q.** How did the GI50 [1] turn out when CSC1=N[C@H](c2ccccc2)CS1 was run?
**A.** > 100 µM (inactive)

**Q.** With N#Cc1c(-c2ccc([N+](=O)[O-])cc2)cc(-c2ccc(Nc3ccnc4cc(Cl)ccc34)cc2)nc1N as the compound, how does the GI50 [1] read?
**A.** 11.6 µM (inactive)

**Q.** How did the GI50 [7] turn out when CC(=O)OC1CC2C(C)(C)C(=O)C=C[C@]2(C)C2CCC3(C)C(c4ccoc4)C(=O)[C@H]4O[C@]43[C@]12C (stereo not given in full) was run?
**A.** 33.7 µM (inactive)

**Q.** And the GI50 [3]?
**A.** > 100 µM (inactive)

**Q.** What about the GI50 [4] of the same compound?
**A.** > 10 µM (inactive)

**Q.** And the GI50 [5]?
**A.** 13.6 µM (inactive)

— ChEMBL document CHEMBL1201862, “PubChem BioAssay data set” (2004)
